The values that follow come from article PMC3706556 (Environmental microbiology, 2013).

The Kd is the free concentration of one partner at which half of the binding sites on the other are occupied at equilibrium, for simple one-to-one binding. A lower Kd goes with higher affinity.

The target of data set [1] is CYP125A3 (Mycolicibacterium smegmatis, UniProt A0R4Y3). Description: biochemical. The class given is binding, Mycobacterium smegmatis mc2 155. The note with it: for Soret band position after ligand addition: CYP125A3 3 μM, ligand 50 μM, resting Soret 393 nm with shoulder at 415 nm.
In data set [2] the target is T1, CYP142A2 (Mycolicibacterium smegmatis, UniProt A0R4Q6). Description: biochemical.
Data set [3] concerns the target T1, CYP142A2. The note with it: CYP142A2 3 μM, ligand 50 μM; resting Soret 418 nm.

Chain of CYP125A3 (A0R4Y3 whole entry): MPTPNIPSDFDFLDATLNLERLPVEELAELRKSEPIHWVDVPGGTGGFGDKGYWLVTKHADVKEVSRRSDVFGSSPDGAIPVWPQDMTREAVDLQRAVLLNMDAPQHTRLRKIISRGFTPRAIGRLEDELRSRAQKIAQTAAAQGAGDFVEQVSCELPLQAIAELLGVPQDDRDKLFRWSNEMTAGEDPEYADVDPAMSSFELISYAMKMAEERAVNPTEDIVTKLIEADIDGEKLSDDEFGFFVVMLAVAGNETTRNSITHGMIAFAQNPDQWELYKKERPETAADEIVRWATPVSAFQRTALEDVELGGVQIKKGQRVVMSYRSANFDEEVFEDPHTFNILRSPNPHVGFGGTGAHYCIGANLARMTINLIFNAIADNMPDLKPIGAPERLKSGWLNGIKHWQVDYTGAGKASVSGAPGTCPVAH
T1 sequence (A0R4Q6 whole entry): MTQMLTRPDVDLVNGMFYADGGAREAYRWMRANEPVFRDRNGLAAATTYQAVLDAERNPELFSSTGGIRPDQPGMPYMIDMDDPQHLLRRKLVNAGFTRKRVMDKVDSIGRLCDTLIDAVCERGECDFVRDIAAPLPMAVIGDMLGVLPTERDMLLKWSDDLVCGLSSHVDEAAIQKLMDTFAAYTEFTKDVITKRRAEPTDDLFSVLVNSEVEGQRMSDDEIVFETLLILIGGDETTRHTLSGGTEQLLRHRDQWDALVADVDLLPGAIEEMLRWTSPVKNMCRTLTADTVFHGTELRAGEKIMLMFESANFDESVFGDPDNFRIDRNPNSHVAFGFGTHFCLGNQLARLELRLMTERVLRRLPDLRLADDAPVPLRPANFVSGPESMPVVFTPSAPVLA

Regarding `CC(C)CCC[C@@H](C)[C@H]1CC[C@H]2[C@@H]3CCC4=CC(=O)CC[C@]4(C)[C@H]3CC[C@]12C` [Cholest-4-en-3-one], the Kd in data set [1] is 2.3 ± 1.4 µM; in data set [2] it was 0.52 ± 0.26 µM.

For `Clc1ccc(COC(Cn2ccnc2)c2ccc(Cl)cc2Cl)c(Cl)c1` (centres unmarked) [Miconazole], the Kd in data set [1] amounted to 1.66 ± 0.21 µM; in data set [2] it was 6.58 ± 0.7 µM.

Take `Clc1ccc(COC(Cn2ccnc2)c2ccc(Cl)cc2Cl)cc1` (centres unmarked) [Econazole]: the “Soret band position after ligand addition” value in data set [3] was determined as 422 nm; in data set [1], 415 nm. In addition, the Kd came out at 7.38 ± 0.71 µM in data set [1] and 7.4 ± 0.52 µM in data set [2].

`Clc1ccccc1C(c1ccccc1)(c1ccccc1)n1ccnc1` [Clotrimazole]: the Kd in data set [1] worked out at 14.5 ± 1.58 µM; in data set [2], 16.2 ± 0.75 µM.

Turning to `CC(C)CCC[C@@H](C)[C@H]1CC[C@H]2[C@@H]3CC=C4C[C@@H](O)CC[C@]4(C)[C@H]3CC[C@]12C` [Cholesterol], the “Soret band position after ligand addition” value in data set [3] and in data set [1] was 393 nm throughout. Also, the results for the Kd in data set [1] and in data set [2] were 1.1 ± 0.5 µM and 0.14 ± 0.07 µM, respectively.
